The source of these data is patent US5134125A, “Nutrient composition” (Kyowa Hakko Kogyo Co., Ltd., priority 1989, dated 1992).

The nature of data set [1]: Hydrolysis of dipeptides in human plasma. It counts as in vitro ADME. The settings on record: 37° C., 30 minutes; for Residual Rate: 10 mM dipeptide. The protocol:
Each of the dipeptides shown in Table 1 below was added to 0.75 ml of plasma collected and prepared from human to give a concentration of 10 mM, followed by reaction at 37° C. for 30 minutes.

Data set [2] can be described thus: Hydrolysis of dipeptides in mouse plasma. The class given is in vitro ADME, C3H/He mice. The settings on record: 3.13 mM, 37° C.; for Residual Rate: mean of five mice. How it is done:
Each of the dipeptides shown in Table 2 below was added to 0.05 ml of plasma collected and prepared from C3H/He mice (6 weeks of age, male, weighing 20 g) to give a concentration of 3.13 mM, followed by reaction at 37° C. for 2, 5, 10 and 20 minutes. Five mice were used for each test group, and the results are shown by the mean value.

The nature of data set [3]: Change in concentration in blood of dipeptides administered to mice. The class given is in vivo, C3H/He mice. The note with it: tail vein, 250 μmoles/kg body weight, FIG. 1. The source says:
γ-L-Glutamyl-L-glutamine and L-alanyl-L-glutamine were respectively administered to C3H/He mice (6 weeks of age, male, weighing 20 g) through the tail vein at a dose of 250 μmoles/kg body weight, and blood was collected intermittently. Five mice were used for each test group, and the results are shown by the mean ±SEM.

Data set [4] can be described thus: Influence of administered dipeptides on renal glutamine level. The settings on record: mice, tail vein; for Concentration of Glutamine in kidney: 250 γmoles/kg body weight, kidneys excised after 20 minutes, mean ±SEM, five mice. It counts as in vivo, C3H/He mice. How it is done:
γ-L-Glutamine-L-glutamine and L-alany-L-glutamine were respectively administered to C3H/He mice (6 weeks of age, male, weighing 20 g) through the tail vein at a dose of 250 γmoles/kg body weight, and after 20 minutes, the kidneys were excised. The glutamine level in the organ was compared to that prior to the administration of the dipeptides. Five mice were used for each test group, and the results are shown by the mean ±SEM.

The target in data set [5] is T1, γ-GTP (γ-glutamyl transferase) (Sus scrofa, UniProt P20735).
T1 construct: γ-GTP prepared from swine kidney was added to the solution; from tissue; host or cells: swine kidney
As to the kind of experiment: Hydrolysis of dipeptides by γ-GTP. The note with it: 5 mM dipeptide, Tris-HCl buffer 50 mM pH 7.0, γ-GTP from swine kidney, 37° C., 120 minutes. It counts as biochemical.

The nature of data set [6]: Stability in solution under sterilizing conditions. The settings on record: solution 10 mM, pH 6.5, 110° C. for 60 minutes. The class given is physicochemical.
A short description of data set [7]: Storage stability test at 40° C. for 30 days. The class given is physicochemical. The note with it: in solution.
The nature of data set [8]: Stability in nutrient preparations under heat sterilization. The class given is physicochemical.
The subject of a further data set is γ-glutamyl transferase. The settings on record: J. Biol. Chem., vol. 253, No. 6, p. 1799-1806 (1978); cited from earlier work.
Data set [9] concerns γ-glutamyl cyclotransferase. The note with it: J. Biol. Chem., vol. 253, No. 6, p. 1799-1806 (1978); cited from earlier work.

Where a SMILES comes first, the peptide text is derived from it.

T1 sequence (P20735 380-568 limits assumed): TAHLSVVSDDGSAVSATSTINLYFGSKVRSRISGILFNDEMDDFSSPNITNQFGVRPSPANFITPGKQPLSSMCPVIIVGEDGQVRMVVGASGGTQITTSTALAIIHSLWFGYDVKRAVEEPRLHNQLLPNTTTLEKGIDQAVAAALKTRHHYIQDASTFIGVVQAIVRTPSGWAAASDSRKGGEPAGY
T1 sequence (P20735 1-379 limits assumed): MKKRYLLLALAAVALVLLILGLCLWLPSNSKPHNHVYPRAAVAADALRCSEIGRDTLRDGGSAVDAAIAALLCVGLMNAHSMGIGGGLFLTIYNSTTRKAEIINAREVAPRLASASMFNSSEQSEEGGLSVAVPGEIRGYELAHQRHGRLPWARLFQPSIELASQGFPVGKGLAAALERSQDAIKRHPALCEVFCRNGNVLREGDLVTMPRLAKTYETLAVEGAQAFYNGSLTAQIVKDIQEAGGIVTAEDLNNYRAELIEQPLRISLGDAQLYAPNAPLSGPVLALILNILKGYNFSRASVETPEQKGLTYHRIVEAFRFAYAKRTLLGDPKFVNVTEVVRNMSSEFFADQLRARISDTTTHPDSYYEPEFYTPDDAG

On to `NC(=O)CC[C@H](NC(=O)[C@@H](N)CC(=O)O)C(=O)O` [L-Aspartyl-L-glutamine] (H-Asp-Gln-OH), for which the “Residual Rate” value in data set [1] was 58%.
Consider `C[C@H](N)C(=O)N[C@@H](CCC(N)=O)C(=O)O` [L-Alanyl-L-glutamine, reference compound] (H-Ala-Gln-OH), for which the “Residual Rate” value in data set [1] turned out to be 74%; in data set [2] (2 minutes) it was 87%; in data set [2] (5 minutes), 62%; in data set [2] (10 minutes), 24%; in data set [2] (20 minutes) it was 11%. Further, in data set [3], the “Appearance (release) of glutamine in blood” value was “rapid release of glutamine into the blood”. In data set [3], the “Disappearance of the dipeptide from blood” value is on record as “disappeared extremely rapidly”. Further, in data set [4], the “Concentration of Glutamine in kidney” value came to 1.14 ± 0.09 μmole/g wet weight.
For `NCC(=O)N[C@@H](CCC(N)=O)C(=O)O` [Glycyl-L-glutamine] (H-Gly-Gln-OH), in [1], the “Residual Rate” value is on record as 84%.
In the case of `NC(=O)CC[C@H](NC(=O)CC[C@H](N)C(=O)O)C(=O)O` [γ-L-Glutamyl-L-glutamine], the “Residual Rate” value in data set [1] stood at 99%; in data set [2] (2 minutes), 100%; in data set [2] (5 minutes), 100%; in data set [2] (10 minutes) it was 100%; in [2] (20 minutes), 100%. Moreover, the “Hydrolysis in human plasma” value in data set [1] (10 mM) is reported as “substantially free of hydrolysis”. For the same molecule, the “Hydrolysis by γ-GTP” value in [5] is given as “almost completely hydrolyzed”. For the same molecule, in [2] (up to 20 minutes), the “Hydrolysis in mouse plasma” value is on record as “not hydrolyzed at all”. For the same molecule, in data set [3], the “Appearance (release) of glutamine in blood” value is “slow”. For the same molecule, the “Disappearance of the dipeptide from blood” value in [3] is given as “slow”. Further, in data set [4], the “Concentration of Glutamine in kidney” value came out at 1.57 ± 0.12 μmole/g wet weight. Besides, the “Renal glutamine level” value in data set [4] (20 minutes after administration, compared to prior to administration) was “significantly high renal glutamine level”. The “Decomposition under sterilizing conditions” value in data set [6] is on record as “not decomposed at all”. The “Residual Rate after Sterilization” value in data set [6] is recorded as 100%. In data set [7], the “Decomposition in storage stability test” value is “not decomposed at all”. Besides, the “Residual Rate after Storage at 40° C. for 30 days” value in data set [7] is recorded as 100%. Besides, the “Stability under the sterilizing conditions” value in [8] (Example 2 jelly-like nutrient preparation, heated at 100° C. for 30 minutes) was “remained stable”; in [8] (Example 3 composition for oral nutrient supplementation, 110° C. for 60 minutes) it was “remained stable”. For the same molecule, in the data set with γ-glutamyl transferase, the “Substrate for γ-glutamyl transferase” value is given as “effective substrate”. Besides, the “Substrate for γ-glutamyl cyclotransferase” value in data set [9] is given as “effective substrate”.
Consider `NC(=O)CC[C@H](N)C(=O)O` [L-Glutamine, reference compound], for which, in data set [6], the “Decomposition under sterilizing conditions” value is 60% and the “Residual Rate after Sterilization” value amounted to 40%. Further, in data set [7], the “Decomposition in storage stability test” value is 29% and the “Residual Rate after Storage at 40° C. for 30 days” value stood at 71%.
